Test results: patent publication US10780076B2, “Inhibition of cancer cell motility” (Northwestern University, priority 2014, dated 2020)
One block for each compound: values may come before it.

Legend:
[1] = test system: PC3-M cells; assay: Single cell motility assay with KBU2046-biotin; format: cell-based, human; details: 10 μM, three days
Method: PC3-M cells were pre-treated with 10 μM KBU2046 or with KBU2046-biotin for three days, and single cell motility assays conducted.
FIGS. 23A-C. […] PC3-M cells were pre-treated with 10 μM KBU2046 or with KBU2046-biotin for three days, and single cell motility assays conducted.

[2] = test system: PC3-M cells; assay: Cell labeling with FITC-streptavidin detection; format: cell-based, human; details: +/−10 μM free KBU2046
[3] = test system: array of over 9,000 human proteins; assay: ProtoArray Human Protein Microarray hybridization; format: binding
Method: FIGS. 19A-D. KBU2046 binds to intact cells, but not to isolated proteins. (A) Chemical structure of KBU2046 linked to biotin (KBU2046-biotin). […] PC3-M cells were pre-treated with 10 μM KBU2046 or with KBU2046-biotin for three days, and single cell motility assays conducted. Data are the mean±SEM. […] PC3-M cells were labeled with […]+/−10 μM free KBU2046, followed by detection with FITC-streptavidin, and visualization by fluorescent microscopy (with equal exposure times). (D) Protein array hybridization. KBU2046-biotin was hybridized to ProtoArray® Human Protein Microarray's at 0.5 and 10 μM with and without 10-fold excess free KBU2046. Proteins were first sought that met the following criteria, and did so at both 0.5 and 10 μM concentrations of KBU2046-biotin (in the absence of free KBU2046): Z-Score greater than 2.5, Z-Factor greater than 0.5, CI P-value less than 0.05, negative control value <2,000 (relative fluorescence units; RFUs), and a signal/negative control signal of >10 and >5 for 10 μM and 0.5 μM conditions, respectively. This yielded 3 proteins, shown in table, for an initial hit rate of 0.03%. It was then required that free KBU2046 inhibit binding by >75% of the two remaining candidates, eliminating isovaleryl-CoA dehydrogenase (ICD). […] The positive control used in protein arrays was staurosporine. Staurosporine is similar to genistein in that both are small compound natural products that are broad spectrum kinase inhibitors. […] The vast majority of these proteins were kinases. Both HSP90β and CDC37 were present on the protein arrays, and were not bound by KBU2046-biotin.

[4] = target: T1, MKK4 (Homo sapiens, UniProt P45985); details: low nanomolar concentrations; cited from earlier work
T1 sequence (P45985 1-399): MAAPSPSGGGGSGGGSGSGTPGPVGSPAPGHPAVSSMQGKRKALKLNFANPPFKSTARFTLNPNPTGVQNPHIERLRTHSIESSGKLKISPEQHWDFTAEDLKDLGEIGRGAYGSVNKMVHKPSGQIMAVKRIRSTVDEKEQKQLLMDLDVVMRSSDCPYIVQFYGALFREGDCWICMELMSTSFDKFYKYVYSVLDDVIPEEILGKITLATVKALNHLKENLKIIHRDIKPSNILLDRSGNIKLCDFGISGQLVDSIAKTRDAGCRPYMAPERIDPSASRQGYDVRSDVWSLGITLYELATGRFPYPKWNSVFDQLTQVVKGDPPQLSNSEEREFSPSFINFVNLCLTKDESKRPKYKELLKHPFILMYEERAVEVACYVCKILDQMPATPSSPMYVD

[5] = test system: protein phosphorylation (kinome) in PC3-M and PC3 cells; assay: KinomeView phospho-motif antibody screen; format: cell-based, human; details: 10 μM, 3 days, ±TGFβ
Method: FIG. 14A-D. Proteomic analysis of the effects of KBU2046 on the kinome. Screening for effects on the kinome. PC3-M cells were pre-treated with 10 μM KBU2046, genistein or vehicle control for 3 days, then with ±TGFB, as indicated. Resultant cell lysate, as well as lysate from tumors from mice treated with 150 mg/kg KBU2046 or control mice (from manuscript FIG. 3A), were then probed with the KinomeView® panel of antibodies by Western blot. In instances where KBU2046 was inhibiting protein phosphorylation in cells and in tumors, a repeat experiment of PC3-M cells was conducted. In addition to including PC3-M cells, experiments were expanded to examine effects on PC3 cells. […] (C,D) All other Western blots of phospho-motif antibodies that were evaluated on initial screen. NI=tumor not informative; this denotes a tumor sample that yielded an abnormal coomassie blue staining pattern.
Screening for changes in the kinome induced by KBU2046 were evaluated with the Kinoview™ assay system. […]
The KinomeView® panel of antibodies (Cell Signaling Technology, Inc.) detects established protein phosphorylation motifs, and were was to probe for KBU2046-induced changes in protein phosphorylation (FIG. 5A; FIGS. 14A-D). […] Genistein was evaluated under identical treatment conditions for comparison. […]

binding to protein array ([3]; 0.5 and 10 μM): lack of binding
SMILES: O=C(CCCC[C@@H]1SC[C@@H]2NC(=O)N[C@@H]21)NCCOCCOCCOCCOc1ccc2c(c1)OCC(c1ccc(F)cc1)C2=O (stereo partly shown) [KBU2046-biotin]
biological activity in single cell motility [1]: biologically active | labeling of intact cells [2]: labels cells in a manner that can be competed off | initial hit rate on protein array ([3]; 0.5 and 10 μM, before competition criterion): 0.03%

SMILES: O=c1c(-c2ccc(O)cc2)coc2cc(O)cc(O)c12 [genistein, 4′,5,7-trihydroxyisoflavone]
inhibition of MKK4 kinase activity (literature) [4]: inhibited the kinase activity | changes in protein phosphorylation [5]: widespread changes in protein phosphorylation

SMILES: CN[C@@H]1C[C@H]2O[C@@](C)([C@@H]1OC)n1c3ccccc3c3c4c(c5c6ccccc6n2c5c31)C(=O)NC4 [staurosporine, reference compound]
number of proteins bound at >/=10 fold above background ([3]; positive control): 214 proteins
